This note sets out measurements from patent US8927533B2, “Thio derivatives bearing lactams as potent HDAC inhibitors and their uses as medicaments” (SIGMA-TAU Industrie Farmaceutiche Riunite S.p.A., priority 2011, dated 2015).

What all share (type): biochemical
The target in one assay is T1, HDAC11 (Homo sapiens, UniProt Q96DB2).
T1 sequence (Q96DB2 1-347): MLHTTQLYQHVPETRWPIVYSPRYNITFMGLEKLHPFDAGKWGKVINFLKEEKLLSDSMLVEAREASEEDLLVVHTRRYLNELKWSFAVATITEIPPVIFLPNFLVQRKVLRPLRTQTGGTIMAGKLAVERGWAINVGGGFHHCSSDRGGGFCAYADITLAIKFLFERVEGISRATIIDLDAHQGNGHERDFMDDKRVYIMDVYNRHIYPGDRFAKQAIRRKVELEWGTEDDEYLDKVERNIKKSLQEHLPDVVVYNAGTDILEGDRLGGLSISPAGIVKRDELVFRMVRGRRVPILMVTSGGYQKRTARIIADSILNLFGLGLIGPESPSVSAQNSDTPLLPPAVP
Description: HDAC enzymatic assay, HDAC11. The note with it: fluorogenic tetrapeptide RHKKAc substrate 10 μM; read-out: HDAC isoforms IC50 (nM), 11. Here is the method:
(§1) Each compound was dissolved in DMSO, and progressively diluted solutions were used for testing. […] Upon its deacetylation, the fluorophore was released given rise to fluorescence emission which was detected by a fluorimeter, and the IC50 values of the compounds were determined by analyzing dose-response inhibition curves.

The next assay addresses HDAC4 (Homo sapiens, UniProt P56524). Description: HDAC enzymatic assay, HDAC4. The note with it: fluorogenic tetrapeptide RHKKAc substrate 10 μM; read-out: HDAC isoforms IC50 (nM), 4. The method, then: as §1
In another assay the target is HDAC5 (Homo sapiens, UniProt Q9UQL6). Description: HDAC enzymatic assay, HDAC5. The settings on record: fluorogenic tetrapeptide RHKKAc substrate 10 μM; read-out: HDAC isoforms IC50 (nM), 5. The method, then:
as §1

The target in another assay is T2, HDAC10 (Homo sapiens, UniProt Q969S8).
T2 sequence (Q969S8 1-669): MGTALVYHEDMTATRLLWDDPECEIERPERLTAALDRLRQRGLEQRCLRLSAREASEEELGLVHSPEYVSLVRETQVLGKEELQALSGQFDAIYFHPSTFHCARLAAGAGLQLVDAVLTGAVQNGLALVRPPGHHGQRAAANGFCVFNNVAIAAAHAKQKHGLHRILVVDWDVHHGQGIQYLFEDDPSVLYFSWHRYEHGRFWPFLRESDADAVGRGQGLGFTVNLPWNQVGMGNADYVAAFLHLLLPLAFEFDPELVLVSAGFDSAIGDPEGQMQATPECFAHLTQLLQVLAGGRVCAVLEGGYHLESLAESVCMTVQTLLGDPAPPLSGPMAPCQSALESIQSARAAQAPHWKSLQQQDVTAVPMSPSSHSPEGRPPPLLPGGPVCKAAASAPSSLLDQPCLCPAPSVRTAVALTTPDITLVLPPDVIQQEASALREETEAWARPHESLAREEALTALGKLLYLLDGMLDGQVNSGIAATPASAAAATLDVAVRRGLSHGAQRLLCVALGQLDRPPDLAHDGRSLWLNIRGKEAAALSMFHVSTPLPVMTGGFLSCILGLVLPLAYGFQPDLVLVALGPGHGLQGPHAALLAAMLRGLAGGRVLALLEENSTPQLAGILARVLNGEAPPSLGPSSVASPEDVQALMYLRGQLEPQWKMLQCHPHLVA
Description: HDAC enzymatic assay, HDAC10. The note with it: fluorogenic tetrapeptide RHKKAc substrate 10 μM; read-out: HDAC isoforms IC50 (nM), 10. Here is the method:
as §1

The target of assay [1] is T3, HDAC3 (complex of full length human HDAC3 with human NCOR2 amino acids 395-489) (Homo sapiens, UniProt O15379).
T3 construct: complex of full length human HDAC3 with a C-terminal His-tag; His-tag (C); host or cells: baculovirus expression system
In words: HDAC enzymatic assay, HDAC3. The note with it: fluorogenic tetrapeptide RHKKAc substrate 10 μM; read-out: HDAC isoforms IC50 (nM), 3. Here is the method: as §1

A further assay addresses HDAC9 (Homo sapiens, UniProt Q9UKV0). Description: HDAC enzymatic assay, HDAC9. The settings on record: fluorogenic tetrapeptide RHKKAc substrate 10 μM; read-out: HDAC isoforms IC50 (nM), 9. Here is the method: as §1
A further assay deals with T4, HDAC8 (Homo sapiens, UniProt Q9BY41).
T4 sequence (Q9BY41 1-377): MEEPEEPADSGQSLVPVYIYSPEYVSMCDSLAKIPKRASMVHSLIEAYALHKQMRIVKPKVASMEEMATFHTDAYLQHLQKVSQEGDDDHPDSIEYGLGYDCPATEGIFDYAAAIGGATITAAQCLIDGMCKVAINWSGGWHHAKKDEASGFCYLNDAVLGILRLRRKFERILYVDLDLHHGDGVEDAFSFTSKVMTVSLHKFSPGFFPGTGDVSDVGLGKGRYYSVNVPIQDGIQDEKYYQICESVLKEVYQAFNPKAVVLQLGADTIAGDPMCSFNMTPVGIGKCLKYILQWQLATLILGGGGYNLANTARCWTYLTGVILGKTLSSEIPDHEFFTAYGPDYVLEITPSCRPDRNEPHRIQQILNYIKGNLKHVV
In words: HDAC enzymatic assay, HDAC8. The settings on record: fluorogenic tetrapeptide RHKKAc substrate 10 μM; read-out: HDAC isoforms IC50 (nM), 8. The method, then: as §1

The target of a further assay is HDAC2 (Homo sapiens, UniProt Q92769). In words: HDAC enzymatic assay, HDAC2. The settings on record: fluorogenic tetrapeptide RHKKAc substrate 10 μM; read-out: HDAC isoforms IC50 (nM), 2. Here is the method: as §1
Another assay deals with HDAC1 (Homo sapiens, UniProt Q13547). In words: HDAC enzymatic assay, HDAC1. The settings on record: fluorogenic tetrapeptide RHKKAc substrate 10 μM; read-out: HDAC isoforms IC50 (nM), 1. The method, then: as §1
Sequence of HDAC1 (Q13547 whole entry, canonical isoform): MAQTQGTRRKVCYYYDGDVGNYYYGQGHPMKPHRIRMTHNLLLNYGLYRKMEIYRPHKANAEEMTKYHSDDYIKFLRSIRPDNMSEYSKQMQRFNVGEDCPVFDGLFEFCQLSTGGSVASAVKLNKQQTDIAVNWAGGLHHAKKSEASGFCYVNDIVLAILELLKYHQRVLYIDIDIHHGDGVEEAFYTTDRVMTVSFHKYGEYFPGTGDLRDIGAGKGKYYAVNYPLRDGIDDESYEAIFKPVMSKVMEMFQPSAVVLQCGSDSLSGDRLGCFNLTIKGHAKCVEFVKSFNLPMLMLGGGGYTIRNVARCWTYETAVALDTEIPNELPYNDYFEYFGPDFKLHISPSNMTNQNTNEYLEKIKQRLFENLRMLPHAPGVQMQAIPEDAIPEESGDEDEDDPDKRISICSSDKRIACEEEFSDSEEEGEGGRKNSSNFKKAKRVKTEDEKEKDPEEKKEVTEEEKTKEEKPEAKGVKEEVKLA

Sequence of HDAC2 (Q92769 whole entry, canonical isoform): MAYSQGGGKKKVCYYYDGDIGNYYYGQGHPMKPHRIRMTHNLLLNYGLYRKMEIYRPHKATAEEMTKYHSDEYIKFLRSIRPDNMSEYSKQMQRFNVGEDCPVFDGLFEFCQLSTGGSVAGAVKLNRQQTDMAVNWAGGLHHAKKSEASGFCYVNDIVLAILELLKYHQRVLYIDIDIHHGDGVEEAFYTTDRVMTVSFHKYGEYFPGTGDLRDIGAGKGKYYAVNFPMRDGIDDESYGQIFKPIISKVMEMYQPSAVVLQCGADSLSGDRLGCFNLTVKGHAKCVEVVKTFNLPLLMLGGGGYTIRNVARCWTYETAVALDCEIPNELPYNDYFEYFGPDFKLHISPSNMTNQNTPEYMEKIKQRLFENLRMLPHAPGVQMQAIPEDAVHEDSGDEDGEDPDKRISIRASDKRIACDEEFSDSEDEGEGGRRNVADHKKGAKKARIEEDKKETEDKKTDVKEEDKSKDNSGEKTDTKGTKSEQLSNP
Sequence of HDAC9 (Q9UKV0 whole entry, canonical isoform): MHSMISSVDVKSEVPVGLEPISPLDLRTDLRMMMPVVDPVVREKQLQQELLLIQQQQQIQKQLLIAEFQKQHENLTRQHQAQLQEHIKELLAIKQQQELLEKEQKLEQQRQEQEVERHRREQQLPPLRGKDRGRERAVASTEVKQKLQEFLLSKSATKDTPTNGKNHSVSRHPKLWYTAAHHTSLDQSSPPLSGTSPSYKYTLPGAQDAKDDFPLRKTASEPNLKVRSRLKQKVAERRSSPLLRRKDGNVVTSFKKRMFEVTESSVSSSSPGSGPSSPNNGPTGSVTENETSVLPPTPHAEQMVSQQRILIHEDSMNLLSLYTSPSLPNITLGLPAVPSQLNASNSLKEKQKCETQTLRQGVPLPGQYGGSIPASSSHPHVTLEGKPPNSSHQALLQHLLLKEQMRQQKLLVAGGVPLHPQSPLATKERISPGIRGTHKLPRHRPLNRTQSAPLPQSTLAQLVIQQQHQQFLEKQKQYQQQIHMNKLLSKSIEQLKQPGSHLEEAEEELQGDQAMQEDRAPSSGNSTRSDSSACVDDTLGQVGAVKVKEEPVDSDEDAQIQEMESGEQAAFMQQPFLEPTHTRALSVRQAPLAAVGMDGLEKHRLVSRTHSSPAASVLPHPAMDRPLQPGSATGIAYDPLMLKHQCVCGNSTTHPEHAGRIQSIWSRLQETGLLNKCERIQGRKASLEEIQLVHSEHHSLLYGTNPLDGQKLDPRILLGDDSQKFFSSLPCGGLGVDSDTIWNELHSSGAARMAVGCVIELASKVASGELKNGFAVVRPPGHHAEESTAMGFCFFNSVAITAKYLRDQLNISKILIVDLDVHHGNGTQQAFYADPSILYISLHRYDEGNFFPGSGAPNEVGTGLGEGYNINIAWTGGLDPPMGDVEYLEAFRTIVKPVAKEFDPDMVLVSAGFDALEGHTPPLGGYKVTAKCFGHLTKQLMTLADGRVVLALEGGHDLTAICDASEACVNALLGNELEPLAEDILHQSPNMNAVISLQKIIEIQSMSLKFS
T3 sequence (O15379 whole entry, the tested form may be a part): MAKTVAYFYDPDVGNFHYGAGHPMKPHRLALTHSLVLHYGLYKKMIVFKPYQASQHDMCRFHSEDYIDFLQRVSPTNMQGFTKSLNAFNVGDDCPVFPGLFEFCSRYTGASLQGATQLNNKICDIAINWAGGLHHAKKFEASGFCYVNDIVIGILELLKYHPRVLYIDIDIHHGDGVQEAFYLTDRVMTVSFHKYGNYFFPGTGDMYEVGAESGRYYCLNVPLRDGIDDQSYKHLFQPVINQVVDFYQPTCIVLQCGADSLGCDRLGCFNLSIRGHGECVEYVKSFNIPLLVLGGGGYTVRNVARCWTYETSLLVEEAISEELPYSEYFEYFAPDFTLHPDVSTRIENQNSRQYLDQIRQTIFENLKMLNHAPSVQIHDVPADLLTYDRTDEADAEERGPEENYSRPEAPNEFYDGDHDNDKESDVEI
T3 sequence (Q9Y618 395-489 partner limits assumed): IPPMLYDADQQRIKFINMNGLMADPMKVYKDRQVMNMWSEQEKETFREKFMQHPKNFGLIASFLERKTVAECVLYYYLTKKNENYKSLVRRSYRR
Sequence of HDAC5 (Q9UQL6 whole entry, canonical isoform): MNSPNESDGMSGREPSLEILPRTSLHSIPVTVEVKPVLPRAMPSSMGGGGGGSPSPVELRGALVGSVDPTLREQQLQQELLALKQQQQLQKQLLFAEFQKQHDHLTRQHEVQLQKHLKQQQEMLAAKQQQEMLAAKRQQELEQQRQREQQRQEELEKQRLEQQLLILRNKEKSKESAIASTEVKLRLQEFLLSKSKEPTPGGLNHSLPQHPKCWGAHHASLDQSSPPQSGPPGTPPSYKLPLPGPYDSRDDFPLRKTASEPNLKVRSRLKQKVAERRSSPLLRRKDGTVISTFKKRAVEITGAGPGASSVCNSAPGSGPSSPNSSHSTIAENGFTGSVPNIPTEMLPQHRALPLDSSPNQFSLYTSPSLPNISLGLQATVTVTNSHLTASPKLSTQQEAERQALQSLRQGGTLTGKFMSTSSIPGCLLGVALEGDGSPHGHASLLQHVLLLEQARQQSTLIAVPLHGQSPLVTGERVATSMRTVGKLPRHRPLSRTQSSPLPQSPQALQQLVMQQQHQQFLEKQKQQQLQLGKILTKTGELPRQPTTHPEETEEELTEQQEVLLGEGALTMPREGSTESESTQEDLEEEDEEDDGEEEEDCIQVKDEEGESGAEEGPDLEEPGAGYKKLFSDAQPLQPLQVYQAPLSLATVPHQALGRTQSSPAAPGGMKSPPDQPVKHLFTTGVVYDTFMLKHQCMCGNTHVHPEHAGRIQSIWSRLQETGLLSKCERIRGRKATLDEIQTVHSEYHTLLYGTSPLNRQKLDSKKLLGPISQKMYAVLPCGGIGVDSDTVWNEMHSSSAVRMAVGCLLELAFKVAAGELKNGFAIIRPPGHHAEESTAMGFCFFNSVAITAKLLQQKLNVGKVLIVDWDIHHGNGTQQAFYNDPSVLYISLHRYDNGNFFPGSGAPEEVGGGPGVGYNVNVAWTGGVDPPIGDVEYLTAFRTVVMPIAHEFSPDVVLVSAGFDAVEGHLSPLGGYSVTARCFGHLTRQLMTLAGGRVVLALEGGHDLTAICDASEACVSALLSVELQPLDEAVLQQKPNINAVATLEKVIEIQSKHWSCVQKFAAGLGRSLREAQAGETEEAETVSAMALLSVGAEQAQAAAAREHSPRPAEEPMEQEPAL
Sequence of HDAC4 (P56524 whole entry, canonical isoform): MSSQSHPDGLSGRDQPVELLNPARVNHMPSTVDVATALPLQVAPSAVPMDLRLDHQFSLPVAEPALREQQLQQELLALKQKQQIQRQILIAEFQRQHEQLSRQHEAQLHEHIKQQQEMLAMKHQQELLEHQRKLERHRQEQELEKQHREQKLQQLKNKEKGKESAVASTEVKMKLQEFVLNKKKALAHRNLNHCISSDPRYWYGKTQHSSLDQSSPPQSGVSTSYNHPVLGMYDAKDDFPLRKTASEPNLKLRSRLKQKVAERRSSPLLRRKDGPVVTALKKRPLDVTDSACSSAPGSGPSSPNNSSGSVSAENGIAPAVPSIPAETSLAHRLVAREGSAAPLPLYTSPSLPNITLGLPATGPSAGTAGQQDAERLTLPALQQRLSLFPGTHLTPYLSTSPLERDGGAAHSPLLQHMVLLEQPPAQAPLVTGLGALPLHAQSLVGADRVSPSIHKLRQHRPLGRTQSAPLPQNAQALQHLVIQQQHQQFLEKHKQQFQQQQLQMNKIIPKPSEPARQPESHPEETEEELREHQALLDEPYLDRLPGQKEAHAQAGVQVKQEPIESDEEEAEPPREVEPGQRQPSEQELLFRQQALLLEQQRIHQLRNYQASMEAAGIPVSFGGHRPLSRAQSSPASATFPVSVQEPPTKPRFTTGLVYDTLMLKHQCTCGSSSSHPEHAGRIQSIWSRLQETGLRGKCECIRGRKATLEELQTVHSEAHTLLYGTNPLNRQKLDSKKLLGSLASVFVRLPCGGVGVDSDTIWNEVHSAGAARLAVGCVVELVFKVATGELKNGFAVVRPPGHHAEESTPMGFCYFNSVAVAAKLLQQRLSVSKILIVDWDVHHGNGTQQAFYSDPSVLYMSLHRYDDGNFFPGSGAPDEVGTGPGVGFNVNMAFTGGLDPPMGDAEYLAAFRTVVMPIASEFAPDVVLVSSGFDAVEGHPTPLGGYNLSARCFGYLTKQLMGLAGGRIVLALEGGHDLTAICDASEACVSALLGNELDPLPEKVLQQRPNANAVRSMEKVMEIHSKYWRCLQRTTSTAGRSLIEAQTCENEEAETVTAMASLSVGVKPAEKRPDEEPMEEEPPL

Take `O=C1NCCC[C@H]1C(=O)N[C@@H](CCCCCS)C(=O)Nc1ccccc1` [Example 35, (R)-2-Oxo-piperidine-3-carboxylic acid ((S)-6-mercapto-1-phenylcarbamoyl-hexyl)amide]: the half-inhibitory concentration (IC50) (at HDAC11; at HDAC4; at HDAC5; on HDAC10; in [1]; on HDAC9) was < 50 nM in each case. Also, the IC50 – broadly, the concentration that inhibits the measured activity by half – at HDAC8 is 50 to 100 nM; at HDAC2 it was < 50 nM; on HDAC1, < 50 nM.

For the molecule `O=C1CCC[C@@H](C(=O)N[C@@H](CCCCCS)C(=O)NCc2cccc(OCc3ccccc3)c2)N1` [Example 25, (S)-6-Oxo-piperidine-2-carboxylic acid [(S)-1-(3-benzyloxy-benzylcarbamoyl)-6-mercapto-hexyl]-amide], the IC50 (at HDAC11; on HDAC4; at HDAC5; on HDAC10; in [1]; at HDAC9) was 100 to 500 nM in each case. Besides, the IC50 at HDAC8 is < 50 nM; on HDAC2 it was 100 to 500 nM; on HDAC1, 100 to 500 nM.

Turning to `O=C1CCC[C@@H](C(=O)N[C@@H](CCCCCS)C(=O)NCc2ccc(C(F)(F)F)cc2)N1` [Example 26, (S)-6-Oxo-piperidine-2-carboxylic acid [(S)-6-mercapto-1-(4-trifluoromethyl-benzylcarbamoyl)-hexyl]-amide], the IC50 was 100 to 500 nM on HDAC11; < 50 nM on HDAC4; 100 to 500 nM at HDAC5; 100 to 500 nM at HDAC10; 100 to 500 nM in assay [1]; 100 to 500 nM on HDAC9. Moreover, the half-maximal inhibitory concentration (IC50) on HDAC8 is < 50 nM; on HDAC2, 100 to 500 nM; at HDAC1 it was 100 to 500 nM.

For the molecule `Cc1cccc(NC(=O)[C@H](CCCCCS)NC(=O)[C@@H]2CCCC(=O)N2)c1` [Example 38, (S)-6-Oxo-piperidine-2-carboxylic acid ((S)-6-mercapto-1-m-tolylcarbamoyl-hexyl)amide], the half-inhibitory concentration (IC50) on HDAC11 is < 50 nM; on HDAC4, 100 to 500 nM; on HDAC5 it was < 50 nM; on HDAC10 it was < 50 nM; in assay [1], < 50 nM; at HDAC9, < 50 nM. Further, the half-maximal inhibitory concentration (IC50) is 100 to 500 nM at HDAC8, < 50 nM at HDAC2 and < 50 nM at HDAC1.
